Experimental data as given in patent publication EP4324461A1, “(E)-N-CINAMOYLAMINOALKANOLES WITH MELANOGENESIS INHIBITORY ACTIVITY” (UNIWERSYTET JAGIELLONSKI, priority 2022, dated 2024).

Columns and labels:
[1] = tested on: human reconstructed epidermis model EpiDerm™; assay: Extended skin irritation test in reconstructed human epidermis (EpiDerm), 2 and 7 days; format: cell-based; settings: for Il-1α in culture medium: medium after the first 24 hours
Experimental: In order to perform extended skin irritation (safety) tests on the reconstructed human epidermis, the exposure time to the tested compounds was extended to 2 and 7 days in the human reconstructed epidermis model EpiDerm™ from MatTek. The epidermis was cultured according to the manufacturer's recommendations, using appropriate multi-well plates and culture media. Solutions of the tested compounds were applied to the epidermis using a positive displacement pipette and distributed using a sterile glass bulb headed Pasteur pipette. […] The epidermis was cultured in an incubator ensuring appropriate humidity, temperature (37 °C) and CO2 concentration (5%). The medium was replaced daily. After an appropriate incubation time, i.e. 2 days or 7 days, the epidermis was rinsed with sterile DPBS and incubated with MTT (Thiazolyl Blue Tetrazolium bromide) solution at 37 °C for 3 hours. After this time, a purple color of formazan was observed, correlated with tissue viability. […] Moreover, in the medium collected after the first 24 hours of EpiDerm epidermis culture, the level of interleukin 1α (Il-1α), which is a mediator of inflammation, was determined. Its level correlates with the unfavorable (irritating) effect of the tested substances on the epidermis. The level of IL-1α was determined using the Cayman Elisa test. […] Table 6. Viability results and results of interleukin 1α concentration measurement in the culture medium in the irritation test in the reconstructed human epidermis model EpiDerm.

Fibroblasts (BJ) = assay: Safety, MTT test in fibroblasts; format: cell-based; settings: 48 hours
Experimental: (§1) In order to test the safety of the compounds, both normal human cells were used: keratinocytes (HaCaT), fibroblasts (BJ), primary melanocytes that occur in the skin, as well as human cancer cells: the hepatocarcinoma line HepG2 and the neuroblastoma line SH-SY5Y, which are considered a model for the assessment of hepatocytotoxicity and neurocytotoxicity. The concentrations of the tested compounds in the range of 250-100 µM were used in the studies. The cell lines used in the research were purchased from the American Type Culture Collection (ATCC) and were cultured in media recommended by the manufacturer with the addition of FBS and antibiotics in an incubator ensuring appropriate culture conditions, i.e. humidity, temperature and CO2 concentration. Cells were seeded into multiwell plates and incubated with the test compounds for 48 hours. After this time, MTT and LDH tests were performed to assess cell viability. The MTT test is based on the ability to transform the substrate: [3-(4,5-dimethyl-2-thiazolyl)-2,5-diphenyl-2H-tetrazolium bromide into a colored product only by living cells. The absorbance at 570 nm, which corresponds to the absorption maximum for the product, is directly proportional to cell viability. The LDH test is based on testing the activity of the enzyme lactate dehydrogenase in the culture medium, which is released from cells as a result of damage to the cell membrane, e.g. as a result of cell death. Triton X-100 was used as a positive control in the test. The determination is colorimetric, the substrate is transformed by the released enzyme into a colored product, an increase in absorbance indicates a larger amount of the released enzyme, and thus confirms greater damage to cell membranes. Tables 7 and 8 present the results obtained, which correspond to the viability of cells incubated with the compounds in relation to the viability of cells constituting a control sample, i.e. incubated with the solvent (DMSO) at the same concentration as in the case of the groups tested in the MTT test or in relation to the results obtained for the Triton X-100 positive control in the LDH test. They indicate that the compounds are safe at the concentrations tested. Table 7. Viability of tested normal human cell lines: keratinocytes (HaCaT), fibroblasts (BJ) and primary melanocytes after incubation with the tested compounds - determination in the MTT test (% of solvent control ± SD) and LDH (percentage of positive control - Triton X-100.

Primary melanocytes = assay: Safety, MTT test in primary melanocytes; format: cell-based; settings: 48 hours
Experimental: as §1

S. typhimurium TA98 = assay: Ames microplate test, TA98; format: cell-based, Salmonella typhimurium;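 note: reference level is the mean solvent-control yellow wells plus SD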
Experimental: Bacteria were grown overnight in growth medium.
Table 9. Ames microplate test results.

[2] = tested on: Chinese hamster ovary cell line (CHO-K1); assay: Cytotoxicity in CHO-K1 cells (MTT) before the micronucleus test; format: cell-based; settings: 24 hours
Procedure, shortened: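 CHO-K1 cells in F-12K with 10% FBS, 37 °C, 5% CO2, exposed to compounds for 24 hours. Viability by MTT, relative to DMSO vehicle at matching concentration; used to pick safe concentrations for the micronucleus test.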

[3] = tested on: Chinese hamster ovary cell line (CHO-K1); assay: Genotoxicity in the micronucleus test in CHO-K1 cells; format: cell-based
S. typhimurium TA1535 = assay: Ames microplate test, TA1535;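 note: bacteria exposed to compound 90 min at 37 °C, then kept 48 h at 37 °C with indicator medium in 384-well plates, scoring wells that turned yellow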
Experimental: The study used the Ames microplate test (Ames MPF™ Penta 2 by Xenometrix, Allschwil, Switzerland). Growth medium, exposure medium, indicator medium, positive controls, hepatic microsomal fraction, NADP, glucose-6-phosphate, Salmonella typhimurium and Escherichia coli strains were components of the purchased experimental kit. Bacteria were grown overnight in growth medium. They were then exposed to the test compound at the appropriate concentration in exposure medium without or with the rat microsomal fraction S9 in 24-well plates for 90 min at 37 °C with shaking. Then, indicator medium was added to the wells and pipetted into 384-well plates, which were incubated for 48 hours at 37 °C without shaking. Results were assessed by counting the wells in which the medium turned yellow for each experimental condition.

[4] = 2 days, 1.0% in 50% PEG (10 µL)
[5] = 7 days, 1.0% in 50% PEG (10 µL)

Structure (SMILES): O=C(/C=C/c1ccc(Cl)cc1)NCCCCCO [Compound A-111, (2E)-3-(4-chlorophenyl)-N-(5-hydroxypentyl)prop-2-enamide]
- Il-1α in culture medium ([1]; 1.0% in 50% PEG (10 µL)): 15.89 ± .057 pg/mL
- Viability [% of control, mean±SD] ([1]; 2 days, 0.1% in 50% PEG (10 µL)): 88.42±1.25 % of control
- Viability [% of control, mean±SD] ([1]; 2 days, 0.5% in 50% PEG (10 µL)): 92.02±3.47 % of control
- Viability [% of control, mean±SD] [1, 4]: 98.56±11.78 % of control
- Viability [% of control, mean±SD] ([1]; 7 days, 0.1% in 50% PEG (10 µL)): 107.77±3.12 % of control
- Viability [% of control, mean±SD] ([1]; 7 days, 0.5% in 50% PEG (10 µL)): 113.85±4.03 % of control
- Viability [% of control, mean±SD] [1, 5]: 100.41±1.52 % of control
- Fibroblasts (BJ) MTT (Fibroblasts (BJ); 100 µM): 99.88±5.25 % of solvent control
- Fibroblasts (BJ) MTT (Fibroblasts (BJ); 150 µM): 100.94±3.37 % of solvent control
- Fibroblasts (BJ) MTT (Fibroblasts (BJ); 200 µM): 98.94±4.04 % of solvent control
- Fibroblasts (BJ) MTT (Fibroblasts (BJ); 250 µM): 94.51±5.03 % of solvent control
- Primary melanocytes MTT (Primary melanocytes; 100 µM): 104.51±1.19 % of solvent control
- Primary melanocytes MTT (Primary melanocytes; 150 µM): 103.09±1.79 % of solvent control
- Primary melanocytes MTT (Primary melanocytes; 200 µM): 99.25±1.92 % of solvent control
- Primary melanocytes MTT (Primary melanocytes; 250 µM): 93.39±1.60 % of solvent control
- Increase in the number of yellow wells compared to the reference level (S. typhimurium TA98; 0.5 mM, +S9): 1.50
- Increase in the number of yellow wells compared to the reference level (S. typhimurium TA98; 0.5 mM, without S9): 0.7
- Increase in the number of yellow wells compared to the reference level (S. typhimurium TA98; 1.0 mM, +S9): 0.83
- Increase in the number of yellow wells compared to the reference level (S. typhimurium TA98; 1.0 mM, without S9): 0.44
- Increase in the number of yellow wells compared to the reference level (S. typhimurium TA98; 2.0 mM, +S9): 1.50
- Increase in the number of yellow wells compared to the reference level (S. typhimurium TA98; 2.0 mM, without S9): 1.00
- % Viability [mean] ([2]; 100 µM): 86.1%
- % Viability [mean] ([2]; 150 µM): 95.6%
- % Viability [mean] ([2]; 200 µM): 98.6%
- DB (dicentric bridges in 1000 binucleate cells) ([3]; 100 µM): 2.5 ± 0.7
- MN (number of micronuclei in 1000 binucleate cells) ([3]; 100 µM): 4.5 ± 3.5
- NB (nuclear buds in 1000 binucleate cells) ([3]; 100 µM): 2.0 ± 2.8
- NDI (nuclear division index) ([3]; 100 µM): 1.60
- DB (dicentric bridges in 1000 binucleate cells) ([3]; 150 µM): 4.0 ± 2.8
- MN (number of micronuclei in 1000 binucleate cells) ([3]; 150 µM): 9.0 ± 5.7
- NB (nuclear buds in 1000 binucleate cells) ([3]; 150 µM): 6.0 ± 1.0
- NDI (nuclear division index) ([3]; 150 µM): 1.64
- DB (dicentric bridges in 1000 binucleate cells) ([3]; 200 µM): 2.0 ± 2.8
- MN (number of micronuclei in 1000 binucleate cells) ([3]; 200 µM): 10.0 ± 4.2
- NB (nuclear buds in 1000 binucleate cells) ([3]; 200 µM): 2.5 ± 0.7
- NDI (nuclear division index) ([3]; 200 µM): 1.64
- Increase in the number of yellow wells compared to the reference level (S. typhimurium TA1535; 0.5 mM, +S9): 0.58
- Increase in the number of yellow wells compared to the reference level (S. typhimurium TA1535; 0.5 mM, without S9): 0.55
- Increase in the number of yellow wells compared to the reference level (S. typhimurium TA1535; 1.0 mM, +S9): 0.35
- Increase in the number of yellow wells compared to the reference level (S. typhimurium TA1535; 1.0 mM, without S9): 0.18
- Increase in the number of yellow wells compared to the reference level (S. typhimurium TA1535; 2.0 mM, +S9): 0.23
- Increase in the number of yellow wells compared to the reference level (S. typhimurium TA1535; 2.0 mM, without S9): 1.65

Structure (SMILES): O=C(/C=C/c1ccccc1)NCCCCCO [Compound A-133, (2E)-N-(5-hydroxypentyl)-3-phenylprop-2-enamide]
- Il-1α in culture medium ([1]; 1.0% in 50% PEG (10 µL)): 34.99 ± 1.17 pg/mL
- Viability [% of control, mean±SD] [1, 4]: 107.19±7.45 % of control
- Viability [% of control, mean±SD] [1, 5]: 107.26±21.82 % of control
- Fibroblasts (BJ) MTT (Fibroblasts (BJ); 100 µM): 99.41±5.96 % of solvent control
- Fibroblasts (BJ) MTT (Fibroblasts (BJ); 150 µM): 91.68±3.64 % of solvent control
- Fibroblasts (BJ) MTT (Fibroblasts (BJ); 200 µM): 87.76±2.71 % of solvent control
- Fibroblasts (BJ) MTT (Fibroblasts (BJ); 250 µM): 82.50±3.99 % of solvent control
- Primary melanocytes MTT (Primary melanocytes; 100 µM): 103.69±2.57 % of solvent control
- Primary melanocytes MTT (Primary melanocytes; 150 µM): 101.88±2.47 % of solvent control
- Primary melanocytes MTT (Primary melanocytes; 200 µM): 97.05±2.96 % of solvent control
- Primary melanocytes MTT (Primary melanocytes; 250 µM): 88.88±2.26 % of solvent control
- Increase in the number of yellow wells compared to the reference level (S. typhimurium TA98; 0.5 mM, +S9): 0.50
- Increase in the number of yellow wells compared to the reference level (S. typhimurium TA98; 0.5 mM, without S9): 0.44
- Increase in the number of yellow wells compared to the reference level (S. typhimurium TA98; 1.0 mM, +S9): 0.67
- Increase in the number of yellow wells compared to the reference level (S. typhimurium TA98; 1.0 mM, without S9): 0.33
- Increase in the number of yellow wells compared to the reference level (S. typhimurium TA98; 2.0 mM, +S9): 1.00
- Increase in the number of yellow wells compared to the reference level (S. typhimurium TA98; 2.0 mM, without S9): 0.67
- % Viability [mean] ([2]; 100 µM): 94.6%
- % Viability [mean] ([2]; 150 µM): 97.2%
- % Viability [mean] ([2]; 200 µM): 89.1%
- DB (dicentric bridges in 1000 binucleate cells) ([3]; 100 µM): 3.8 ± 2.8
- MN (number of micronuclei in 1000 binucleate cells) ([3]; 100 µM): 7.8 ± 2.9
- NB (nuclear buds in 1000 binucleate cells) ([3]; 100 µM): 6.3 ± 3.7
- NDI (nuclear division index) ([3]; 100 µM): 1.64
- DB (dicentric bridges in 1000 binucleate cells) ([3]; 150 µM): 3.7 ± 2.3
- MN (number of micronuclei in 1000 binucleate cells) ([3]; 150 µM): 6.0 ± 1.9
- NB (nuclear buds in 1000 binucleate cells) ([3]; 150 µM): 4.5 ± 3.3
- NDI (nuclear division index) ([3]; 150 µM): 1.65
- DB (dicentric bridges in 1000 binucleate cells) ([3]; 200 µM): 3.3 ± 1.4
- MN (number of micronuclei in 1000 binucleate cells) ([3]; 200 µM): 6.8 ± 3.2
- NB (nuclear buds in 1000 binucleate cells) ([3]; 200 µM): 4.7 ± 1.8
- NDI (nuclear division index) ([3]; 200 µM): 1.66
- Increase in the number of yellow wells compared to the reference level (S. typhimurium TA1535; 0.5 mM, +S9): 0.47
- Increase in the number of yellow wells compared to the reference level (S. typhimurium TA1535; 0.5 mM, without S9): 0.92
- Increase in the number of yellow wells compared to the reference level (S. typhimurium TA1535; 1.0 mM, +S9): 0.23
- Increase in the number of yellow wells compared to the reference level (S. typhimurium TA1535; 1.0 mM, without S9): 0.55
- Increase in the number of yellow wells compared to the reference level (S. typhimurium TA1535; 2.0 mM, +S9): 0.35
- Increase in the number of yellow wells compared to the reference level (S. typhimurium TA1535; 2.0 mM, without S9): 1.10
